Measurements published in US20230263822A1, “MODULATION OF FACTOR 11 EXPRESSION” (Ionis Pharmaceuticals, Inc., priority 2008, published 2023).
Like-named read-outs stand apart in the source and are kept apart here. Strand notation (5' to 3'): a small letter for the sugar, then the base; units joined by * are phosphorothioate-linked, units joined directly phosphodiester-linked; [ ] holds rarer units or linkages, { } end groups; capitals alone tell only the bases. e = 2'-O-(2-methoxyethyl) (MOE); [5mC] = 5-methylcytosine; d = 2'-deoxy (DNA)

Key:
[1] = test system: blood coagulation; test: PT and aPTT assay in cynomolgus monkeys (Example 45); assay type: in vivo; conditions: escalating dose regimen, platelet poor plasma
Description: (§1) Groups, each consisting of two male and three female monkeys, were injected subcutaneously with ISIS 416838, ISIS 416850, ISIS 416858, ISIS 416864, or ISIS 417002 in escalating doses. Antisense oligonucleotide was administered to the monkeys at 5 mg/kg three times per a week for week 1; 5 mg/kg twice per week for weeks 2 and 3; 10 mg/kg three times per week for week 4; 10 mg/kg twice per week for weeks 5 and 6; 25 mg/kg three times per week for week 7; and 25 mg/kg twice per week for weeks 8, 9, 10, 11, and 12. One control group, consisting of two male and three female monkeys, was injected subcutaneously with PBS according to the same dosing regimen. An additional experimental group, consisting of two male and three female monkeys, was injected subcutaneously with ISIS 416850 in a chronic, lower dose regimen. Antisense oligonucleotide was administered to the monkeys at 5 mg/kg three times per week for week 1; 5 mg/kg twice per week for week 2 and 3; 10 mg/kg three times per week for week 4; and 10 mg/kg twice per week for weeks 5 to 12. Body weights were measured weekly. Blood samples were collected 14 days and 5 days before the start of treatment and subsequently once per week for Factor 11 protein activity analysis in plasma, fibrinogen measurement, PT and aPTT measurements, bleeding times, and measurement of various hematologic factors. On day 85, the monkeys were euthanized by exsanguination while under deep anesthesia, and organs harvested for further analysis.
Blood samples were collected in tubes containing sodium citrate. PT and aPTT were determined in duplicate with an ACL 9000 coagulation instrument (Instrumentation Laboratory, Italy). The results were interpolated on a standard curve of serial dilutions citrated control monkey plasma tested to give a reported result in percent normal.
Prothrombin Time (PT) and Activated Partial Thromboplastin Time (aPTT) were measured using platelet poor plasma (PPP) from monkeys treated with ISIS oligonucleotides. PT and aPTT values are provided in Tables 116 and 117 and are reported as International Normalized Ratio (INR) values. INR values for PT and aPTT were determined by dividing the PT or aPTT value for each experimental group by the PT or aPTT for the PBS treated group. This ratio was then raised to the power of the International Sensitivity Index (ISI) of the tissue factor used. The ISIS oligonucleotide, ISIS 416850, given with the chronic dose regimen is distinguished from the other oligonucleotides with an asterisk (*).

[2] = Kidney function, urine protein to creatinine ratio in cynomolgus monkeys (Example 45); assay type: in vivo
Description: as §1
To evaluate the impact of ISIS oligonucleotides on kidney function, urine samples were collected.

[3] = mouse, in vivo, sc, 50 mg/kg
Description: A control group of five mice was injected subcutaneously with PBS for 2 weeks. All experimental groups (i.e. ASO treated mice at 2, 4, 6 weeks) were compared to the control group (i.e. PBS, 2 weeks).
Blood obtained from all mice groups were sent to Antech Diagnostics for hematocrit (HCT), mean corpuscular volume (MCV), mean corpuscular hemoglobin (MCH), and mean corpuscular hemoglobin concentration (MCHC) measurements and analyses, as well as measurements of the various blood cells, such as WBC (neutrophils, lymphocytes, and monocytes), RBC, and platelets, and total hemoglobin content.

[4] = Tolerability in Sprague-Dawley rats: hematology assays (Example 35); conditions: 50 mg/kg s.c. twice per week for 6 weeks
[5] = Tolerability in CD1 mice: body weight and organ weights (Example 37); conditions: 50 mg/kg s.c. twice per week for 6 weeks
Description: Body weight was measured at the onset of the study and subsequently twice per week. The body weights of the mice are presented in Table 80 and are expressed increase in grams over the PBS control weight taken before the start of treatment. Liver, spleen, and kidney weights were measured at the end of the study, and are also presented in Table 80 as percentage of the body weight.

[6] = Tolerability in CD1 mice: hematology assays (Example 41); conditions: 50 mg/kg s.c. twice per week for 6 weeks, blood
[7] = Tolerability in CD1 mice: kidney function, BUN (Example 41); conditions: 50 mg/kg s.c. twice per week for 6 weeks, plasma

In the case of “ISIS 416864: MOE gapmer, nucleobases 1275 to 1318 of SEQ ID NO: 1 (Table 8) (antisense GGCAGCGGACGGCATTGGTG; MOE gapmer, wing and gap sizes not given here)”, the “PT ratio (INR)” value ([1]; day 8) is reported as 1.02, the “aPTT ratio (INR)” value ([1]; day 8) is reported as 1.05 and the “PT ratio (INR)” value ([1]; day 15) is reported as 1.07. The “aPTT ratio (INR)” value ([1]; day 15) was 1.03, the “PT ratio (INR)” value ([1]; day 22) was 1.03 and the “aPTT ratio (INR)” value ([1]; day 22) was 1.11. For the same substance, the “PT ratio (INR)” value ([1]; day 29) was 1.06, the “aPTT ratio (INR)” value ([1]; day 29) was 1.13 and the “PT ratio (INR)” value ([1]; day 36) was 1.06. For the same substance, the “aPTT ratio (INR)” value ([1]; day 36) was 1.19, the “PT ratio (INR)” value ([1]; day 43) was 1.04 and the “aPTT ratio (INR)” value ([1]; day 43) was 1.07. The “PT ratio (INR)” value ([1]; day 50) was 1.01, the “aPTT ratio (INR)” value ([1]; day 50) was 1.26 and the “PT ratio (INR)” value ([1]; day 57) was 1.08. For the same substance, the “aPTT ratio (INR)” value ([1]; day 57) was 1.19, the “PT ratio (INR)” value ([1]; day 64) was 1.10 and the “aPTT ratio (INR)” value ([1]; day 64) was 1.12. For the same substance, the “PT ratio (INR)” value ([1]; day 71) was 1.07, the “aPTT ratio (INR)” value ([1]; day 71) was 1.18 and the “PT ratio (INR)” value ([1]; day 78) was 1.08. For the same substance, the “aPTT ratio (INR)” value ([1]; day 78) was 1.18, the “PT ratio (INR)” value ([1]; day 85) was 1.13 and the “aPTT ratio (INR)” value ([1]; day 85) was 1.25. The “PT ratio (INR)” value ([1]; day −5) was 1.00, the “aPTT ratio (INR)” value ([1]; day −5) was 1.00 and the “PT ratio (INR)” value ([1]; day −14) was 1.00. For the same substance, the “aPTT ratio (INR)” value ([1]; day −14) was 1.00, the “urine protein to creatinine ratio” value ([2]; Day 80) was 0.36 and the “urine protein to creatinine ratio” value ([2]; Day 84) was 0.34. For the same substance, the MCHC [3] was 31%, the Platelets [4] was 12 10^3/μL and the RBC [4] was 4. It also gave a WBC [4] of 15 nL⁻¹, a lymphocytes [4] of 2% and a monocytes [4] of 29%. The neutrophils [4] was 26%, the HCT ([4]; title says % control) was 2% and the MCH ([4]; title says % control) was 2. For the same substance, the MCHC ([4]; title says % control) was 4%, the MCV ([4]; title says % control) was 4 and the body weight ([5]; increase in grams over the PBS control weight taken before the start of treatment) was 12 g. For the same substance, the Kidney weight ([5]; percentage of the body weight) was 1.6%, the Liver weight ([5]; percentage of the body weight) was 5% and the Spleen weight ([5]; percentage of the body weight) was 0.3%.
Substance “ISIS 445522: 5-8-5 or 6-8-6 MOE microwalk gapmer (Table 44) (antisense eG*e[5mC]*eA*e[5mC]*eA*dG*dT*dT*dT*d[5mC]*dT*dG*dG*e[5mC]*eA*eG*eG*e[5mC])” has an HCT [6] of 49%, a Lymphocyte [6] of 3997 and a Neutrophil [6] of 698. For the same substance, the Platelets [6] was 1005, the RBC [6] was 9.7 and the WBC [6] was 5. It also gave a hemoglobin [6] of 14.6 g/dL and a BUN [7] of 28 mg/dL.
“ISIS 445531: 5-8-5 or 6-8-6 MOE microwalk gapmer (Table 44) (antisense eG*eG*e[5mC]*eA*eT*dT*dG*dG*dT*dG*d[5mC]*dA*d[5mC]*eA*eG*eT*eT*eT)” showed an HCT [6] of 48%, a Lymphocyte [6] of 6125 and a Neutrophil [6] of 2341. For the same substance, the Platelets [6] was 996, the RBC [6] was 9.4 and the WBC [6] was 9. The hemoglobin [6] was 14.5 g/dL and the BUN [7] was 27 mg/dL.
